From EP4725956A1, “MODIFIED POLYPEPTIDE AND USE THEREOF IN FIELD OF ANALGESIA” (Nanjing Anji Biotechnology Co., Ltd., priority 2023, dated 2024)
Positions of bridges follow the written chain, without caps; N, C: chain ends. Non-standard residues stand in square brackets, D forms with d. Residues, ends and D or L forms follow the SMILES beside them. Bip = N[C@@H](Cc1ccc(-c2ccccc2)cc1)C(=O)O; Hyp = O=C(O)[C@@H]1C[C@@H](O)CN1; Nle = CCCC[C@H](N)C(=O)O; Orn = NCCC[C@H](N)C(=O)O; Aib = CC(C)(N)C(=O)O

Assays:
rat CCI model = assay: Rat CCI (chronic constriction injury) model (Example 9); assay type: in vivo
From the text: Neuropathic pain has many types, and animal models can simulate clinical neuropathic pain. Common SD rat sciatic nerve neuropathic pain models include CCI (Chronic Constriction Injury), SNI (Spared Nerve Injury), SNL (Spinal Nerve Ligation), and CCD (using stainless steel wire through the intervertebral foramen to fix and compress the dorsal root ganglion). Among them, the CCI model is widely used to study neuropathic pain, providing a basis for further research on mechanisms and strategies for nerve injury repair (Wen Xiaojun, Medical Information, Jan. 2018, Vol. 31, No.1). In this example, the CCI model was employed.
Except for the control group, the remaining SD rats were anesthetized via intraperitoneal injection of 10% chloral hydrate saline solution at a dose of 0.3 mL per 100 g body weight, and surgical modeling was performed. The right hind limb skin was carefully incised, muscles were separated, and the sciatic nerve was ligated three times using 4-0 surgical silk, spaced 1 mm apart. Muscles and skin were sutured, and antibiotics were applied to the wound to prevent infection. […] Approximately 10 days post-surgery, plantar pain thresholds were measured three times for each rat, and the average value was calculated. Rats were randomly assigned to groups based on pain thresholds. Drug administration was performed according to Table 8, and plantar pain thresholds were measured at 2 h, 4 h, 6 h, and 8 h after administration.

[1] = In vitro plasma stability and predicted half-life (HPLC main peak area, Example 3); assay type: in vitro ADME; conditions: human plasma (EDTA anticoagulant), 37°C, sampled up to 24 h, predicted half-life calculated with Winolin
How it was run: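 Peptides (10 mg in 5 mL human EDTA plasma) incubated at 37°C, sampled from 0 min up to 24 h. Samples quenched with acetonitrile, centrifuged and analysed by HPLC for main peak area; in vitro half-life predicted from peak-area decline by pharmacokinetic fitting.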

[2] = test system: mouse oxaliplatin-induced acute chemotherapy pain model; assay: Mouse oxaliplatin chemotherapy pain model, different doses (Example 7); assay type: in vivo
Experimental: Oxaliplatin was dissolved in 5% glucose solution to a concentration of 1 mg/mL. For model induction, each male C57 mouse (Hangzhou Ziyuan Experimental Animal Technology Co., Ltd.) received a single intraperitoneal injection of oxaliplatin at 10 mg/kg. Mice in the negative control or blank control group received 5% glucose solution. Approximately one week after model induction, mechanical pain thresholds of the mice were measured three times per mouse, and the average value was calculated. Mice were then randomly assigned to groups based on their pain thresholds. Drug administration was carried out according to the dosing schedule shown in Table 6, with a single dose per mouse. Mechanical pain thresholds were measured at 0.5, 1, 2, 4, 6, and 8 h post-dose. […] Table 6 Dosing Scheme for Oxaliplatin Chemotherapy Pain Model

CCCC[C@H](NC(=O)[C@@H](NC(=O)[C@H]1CSSC[C@H](NC(=O)[C@H](CO)NC(=O)CN)C(=O)N[C@@H](CO)C(=O)N[C@H]([C@H](C)O)C(=O)N2C[C@H](O)C[C@H]2C(=O)N2C[C@H](O)C[C@H]2C(=O)NC(C)(C)C(=O)N1)C(C)C)C(=O)N[C@@H](Cc1ccc(-c2ccccc2)cc1)C(=O)N[C@@H](CCCN)C(N)=O [AJ003-36, GSCS-(D-Thr)-Hyp-Hyp-Aib-(D-Cys)-V-Nle-Bip-Orn-NH2 (3,9 disulfide bond)] (H-GSCS[dT][Hyp][Hyp][Aib][dC]V[Nle][Bip][Orn]-NH2; disulfide 3-9)
significant analgesic activity: analgesic activity compared with the model group (mechanical pain threshold) (rat CCI model; Day 1 of dosing, 2 h and 4 h, 0.5 mg/kg s.c. (low dose)) | analgesic activity compared with the model group (mechanical pain threshold) (rat CCI model; Day 1 of dosing, 2 h and 4 h, 1 mg/kg s.c. (AJ003; AJ003-36 medium dose)) | analgesic activity compared with the model group (mechanical pain threshold) (rat CCI model; Day 1 of dosing, 2 h and 4 h, 2 mg/kg s.c. (high dose)) | analgesic activity compared with the model group (mechanical pain threshold) (rat CCI model; Day 1 of dosing, 6 h, 0.5 mg/kg s.c. (low dose)) | analgesic activity compared with the model group (mechanical pain threshold) (rat CCI model; Day 1 of dosing, 6 h, 1 mg/kg s.c. (AJ003; AJ003-36 medium dose)) | analgesic activity compared with the model group (mechanical pain threshold) (rat CCI model; Day 1 of dosing, 6 h, 2 mg/kg s.c. (high dose)) | analgesic activity compared with the model group (mechanical pain threshold) (rat CCI model; Day 1 of dosing, 8 h, 1 mg/kg s.c. (AJ003; AJ003-36 medium dose)) | analgesic activity compared with the model group (mechanical pain threshold) (rat CCI model; Day 1 of dosing, 8 h, 2 mg/kg s.c. (high dose)) | analgesic activity compared with the model group (mechanical pain threshold) (rat CCI model; Day 4 of dosing, 2 h and 4 h, 0.5 mg/kg s.c. (low dose)) | analgesic activity compared with the model group (mechanical pain threshold) (rat CCI model; Day 4 of dosing, 2 h and 4 h, 1 mg/kg s.c. (AJ003; AJ003-36 medium dose)) | analgesic activity compared with the model group (mechanical pain threshold) (rat CCI model; Day 4 of dosing, 2 h and 4 h, 2 mg/kg s.c. (high dose)) | analgesic activity compared with the model group (mechanical pain threshold) (rat CCI model; Day 7 of dosing, 2 h and 4 h, 0.5 mg/kg s.c. (low dose)) | analgesic activity compared with the model group (mechanical pain threshold) (rat CCI model; Day 7 of dosing, 2 h and 4 h, 1 mg/kg s.c. (AJ003; AJ003-36 medium dose)) | analgesic activity compared with the model group (mechanical pain threshold) (rat CCI model; Day 7 of dosing, 2 h and 4 h, 2 mg/kg s.c. (high dose)) | analgesic activity compared with the model group (mechanical pain threshold) (rat CCI model; Day 10 of dosing, 2 h and 4 h, 0.5 mg/kg s.c. (low dose)) | analgesic activity compared with the model group (mechanical pain threshold) (rat CCI model; Day 10 of dosing, 2 h and 4 h, 1 mg/kg s.c. (AJ003; AJ003-36 medium dose)) | analgesic activity compared with the model group (mechanical pain threshold) (rat CCI model; Day 10 of dosing, 2 h and 4 h, 2 mg/kg s.c. (high dose)) | analgesic activity compared with the model group (mechanical pain threshold) (rat CCI model; Day 14 of dosing, 2 h and 4 h, 0.5 mg/kg s.c. (low dose)) | analgesic activity compared with the model group (mechanical pain threshold) (rat CCI model; Day 14 of dosing, 2 h and 4 h, 1 mg/kg s.c. (AJ003; AJ003-36 medium dose)) | analgesic activity compared with the model group (mechanical pain threshold) (rat CCI model; Day 14 of dosing, 2 h and 4 h, 2 mg/kg s.c. (high dose)) | analgesic activity compared with the model group (mechanical pain threshold) ([2]; single dose, 0.5, 1, 2 and 4 h post-dose, 1 mg/kg s.c. (low dose)) | analgesic activity compared with the model group (mechanical pain threshold) ([2]; single dose, 0.5, 1, 2 and 4 h post-dose, 2 mg/kg s.c. (AJ003; AJ003-36 medium dose)) | analgesic activity compared with the model group (mechanical pain threshold) ([2]; single dose, 0.5, 1, 2 and 4 h post-dose, 3 mg/kg s.c. (high dose)) | analgesic activity compared with the model group (mechanical pain threshold) ([2]; single dose, 6 h post-dose, 1 mg/kg s.c. (low dose)) | analgesic activity compared with the model group (mechanical pain threshold) ([2]; single dose, 6 h post-dose, 2 mg/kg s.c. (AJ003; AJ003-36 medium dose)) | analgesic activity compared with the model group (mechanical pain threshold) ([2]; single dose, 6 h post-dose, 3 mg/kg s.c. (high dose)) | analgesic activity compared with the model group (mechanical pain threshold) ([2]; single dose, 8 h post-dose, 2 mg/kg s.c. (AJ003; AJ003-36 medium dose)) | analgesic activity compared with the model group (mechanical pain threshold) ([2]; single dose, 8 h post-dose, 3 mg/kg s.c. (high dose))
remained significant: analgesic activity compared with the model group (mechanical pain threshold) (rat CCI model; Day 4 of dosing, 6 h and 8 h, 1 mg/kg s.c. (AJ003; AJ003-36 medium dose)) | analgesic activity compared with the model group (mechanical pain threshold) (rat CCI model; Day 4 of dosing, 6 h and 8 h, 2 mg/kg s.c. (high dose)) | analgesic activity compared with the model group (mechanical pain threshold) (rat CCI model; Day 7 of dosing, 8 h, 1 mg/kg s.c. (AJ003; AJ003-36 medium dose)) | analgesic activity compared with the model group (mechanical pain threshold) (rat CCI model; Day 7 of dosing, 8 h, 2 mg/kg s.c. (high dose)) | analgesic activity compared with the model group (mechanical pain threshold) (rat CCI model; Day 10 of dosing, 6 h, 0.5 mg/kg s.c. (low dose)) | analgesic activity compared with the model group (mechanical pain threshold) (rat CCI model; Day 10 of dosing, 6 h, 1 mg/kg s.c. (AJ003; AJ003-36 medium dose)) | analgesic activity compared with the model group (mechanical pain threshold) (rat CCI model; Day 10 of dosing, 6 h, 2 mg/kg s.c. (high dose)) | analgesic activity compared with the model group (mechanical pain threshold) (rat CCI model; Day 10 of dosing, 8 h, 1 mg/kg s.c. (AJ003; AJ003-36 medium dose)) | analgesic activity compared with the model group (mechanical pain threshold) (rat CCI model; Day 10 of dosing, 8 h, 2 mg/kg s.c. (high dose)) | analgesic activity compared with the model group (mechanical pain threshold) (rat CCI model; Day 14 of dosing, 6 h, 0.5 mg/kg s.c. (low dose)) | analgesic activity compared with the model group (mechanical pain threshold) (rat CCI model; Day 14 of dosing, 6 h, 1 mg/kg s.c. (AJ003; AJ003-36 medium dose)) | analgesic activity compared with the model group (mechanical pain threshold) (rat CCI model; Day 14 of dosing, 6 h, 2 mg/kg s.c. (high dose)) | analgesic activity compared with the model group (mechanical pain threshold) (rat CCI model; Day 14 of dosing, 8 h, 1 mg/kg s.c. (AJ003; AJ003-36 medium dose)) | analgesic activity compared with the model group (mechanical pain threshold) (rat CCI model; Day 14 of dosing, 8 h, 2 mg/kg s.c. (high dose))
not significant: analgesic activity compared with the model group (mechanical pain threshold) (rat CCI model; Day 7 of dosing, 8 h, 0.5 mg/kg s.c. (low dose)) | analgesic activity compared with the model group (mechanical pain threshold) (rat CCI model; Day 10 of dosing, 8 h, 0.5 mg/kg s.c. (low dose)) | analgesic activity compared with the model group (mechanical pain threshold) (rat CCI model; Day 14 of dosing, 8 h, 0.5 mg/kg s.c. (low dose))
no significant effect: analgesic activity compared with the model group (mechanical pain threshold) ([2]; single dose, 8 h post-dose, 1 mg/kg s.c. (low dose))
still significant: analgesic activity compared with the model group (mechanical pain threshold) (rat CCI model; Day 7 of dosing, 6 h, 0.5 mg/kg s.c. (low dose)) | analgesic activity compared with the model group (mechanical pain threshold) (rat CCI model; Day 7 of dosing, 6 h, 1 mg/kg s.c. (AJ003; AJ003-36 medium dose)) | analgesic activity compared with the model group (mechanical pain threshold) (rat CCI model; Day 7 of dosing, 6 h, 2 mg/kg s.c. (high dose))
no longer significant: analgesic activity compared with the model group (mechanical pain threshold) (rat CCI model; Day 4 of dosing, 6 h and 8 h, 0.5 mg/kg s.c. (low dose))
65.3 h: half-life at 2 mg/mL [1]
not significantly different: analgesic activity compared with the model group (mechanical pain threshold) (rat CCI model; Day 1 of dosing, 8 h, 0.5 mg/kg s.c. (low dose))
